The source of these data is patent US10238667B2, “Vitamin D receptor/SMAD genomic circuit gates fibrotic response” (Salk Institute for Biological Studies, priority 2013, dated 2019).

The subject of one data set is C57BL/6J mice. Nature of the data set: CCl4 model of liver injury and fibrosis. The class given is in vivo, mouse. How it is done:
(§1) LX-2 cells, a generous gift from Professor Scott Friedman, Mount Sinai School of Medicine, New York, N.Y., were cultured as described previously (Xu et al., 2005). […] For luciferase assays, DNA transfections were performed using Fugene 6 (Roche) following the manufacturer's instructions. […] RT-qPCR, total RNA was purified following TRIzol extraction and treated with DNaseI (Invitrogen). cDNA synthesis was carried out with iScript RT Supermix (Biorad). Quantitative PCR was performed in technical triplicates using SYBR Green reagent (Biorad). The relative standard curve method was used for quantitation (Biorad). Expression levels were calculated by normalization to either Gapdh (mouse) or U36B4 (human) quantities.
8 week-old male C57BL/6J mice were IP injected with 0.5 ml/kg body weight CCl4 (1:50 v/v in corn oil from Sigma) or vehicle (DMSO in corn oil) three times a week for 4 weeks. […] The animals were terminated 72 hours after the final CCl4 injection and whole livers and serum were collected for histological, cytological, biochemical and molecular analyses.
5 μm sections of formalin-fixed liver were stained following standard H&E and Sirius Red methods and reviewed by a pathologist who was blinded to the experimental conditions. Fibrosis was scored using the Ishak modified histological activity index (HAI) scoring system. Fibrosis was also quantified using Image J software on 10 non-contiguous Sirius Red stained sections. All images were obtained using a high-resolution Leica DFC420 digital camera mounted on an Olympus microscope equipped with ×4/0.13, ×10/0.30, ×20/0.50 and ×40/0.75 UplanFL N plan objective lenses and processed with the Leica Application Suite. Hepatic hydroxyproline content was measured using a commercial colorimetric assay from Biovision (K555-100).

The next data set concerns primary mouse HSCs. Nature of the data set: Fibrotic gene expression in primary mouse HSCs. The class given is cell-based. As to conditions: primary mouse HSCs (data not shown). The protocol:
HSCs were isolated from 10-week old male C57BL/6J mice and Wistar rats by in situ pronase, collagenase perfusion and single-step Histogenz gradient as previously reported (Hendriks et al., 1985; Knook et al., 1982). Isolated HSCs were cultured in DMEM (Mediatech) containing 20% FBS (Hyclone) on 6-well plates for 40 hours prior to end-point assays.
as §1

Consider `C=C1/C(=C\C=C2/CCC[C@]3(C)[C@@H]([C@H](C)/C=C/[C@@H](O)C4CC4)CC[C@@H]23)C[C@@H](O)C[C@@H]1O` [calcipotriol, 1α,24-(OH)2-24-cyclopropyl-D3], for which the “fibrosis (Sirius red staining, hepatic hydroxyproline content, histological fibrotic scoring)” value with C57BL/6J mice (CCl4 0.5 ml/kg IP 3 times per week, 4 weeks, calcipotriol 20 μg/kg oral gavage co-treatment) is listed as “significant reduction in fibrosis”. In addition, the serum calcium concentration entry with C57BL/6J mice (calcipotriol 20 μg/kg oral gavage, 4 weeks) is “not significantly altered”. The “down-regulation of fibrotic marker genes Col1a1, Tgfb1 and Timp1” value in the data set on C57BL/6J mice (hepatic gene expression, RT-qPCR, CCl4/calcipotriol co-treated vs CCl4) is reported as 50-70%. In addition, the “fibrogenic response in liver” value in the data set with C57BL/6J mice (pre-treated with calcipotriol for 5 weeks prior to CCl4/calcipotriol co-treatment) is “nearly completely abrogated”. Further, the fibrotic gene expression result with primary mouse HSCs was “potently repressed”.
